From ChEMBL document CHEMBL5696441 (Nat Chem Biol, 2011)

Assays:
[1] = molecular target: Serine/threonine-protein kinase BRSK2 (Homo sapiens) (UniProt Q8IWQ3); assay: Inhibition of BRSK2 (unknown origin) assessed as remaining activity at 1 uM by Kinome scan method relative to control
[2] = molecular target: T1, Serine/threonine-protein kinase 17A (Homo sapiens) (UniProt Q9UEE5); assay: Inhibition of DRAK1 (unknown origin) assessed as remaining activity at 1 uM by Kinome scan method relative to control
T1 sequence (whole entry): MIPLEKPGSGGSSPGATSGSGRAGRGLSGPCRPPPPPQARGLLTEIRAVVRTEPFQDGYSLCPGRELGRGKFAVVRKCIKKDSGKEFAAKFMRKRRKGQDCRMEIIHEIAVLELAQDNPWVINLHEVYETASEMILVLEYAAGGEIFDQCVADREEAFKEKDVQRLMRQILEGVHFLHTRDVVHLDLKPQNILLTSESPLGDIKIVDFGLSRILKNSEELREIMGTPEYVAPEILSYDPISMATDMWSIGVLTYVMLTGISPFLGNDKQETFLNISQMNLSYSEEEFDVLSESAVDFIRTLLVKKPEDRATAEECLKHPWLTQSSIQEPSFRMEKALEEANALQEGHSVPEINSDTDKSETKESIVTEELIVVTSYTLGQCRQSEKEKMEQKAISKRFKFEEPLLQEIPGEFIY

[3] = molecular target: T2, Inhibitor of nuclear factor kappa-B kinase subunit alpha (Homo sapiens) (UniProt O15111); assay: Inhibition of IKK-alpha (unknown origin) assessed as remaining activity at 1 uM by Kinome scan method relative to control
T2 sequence (whole entry): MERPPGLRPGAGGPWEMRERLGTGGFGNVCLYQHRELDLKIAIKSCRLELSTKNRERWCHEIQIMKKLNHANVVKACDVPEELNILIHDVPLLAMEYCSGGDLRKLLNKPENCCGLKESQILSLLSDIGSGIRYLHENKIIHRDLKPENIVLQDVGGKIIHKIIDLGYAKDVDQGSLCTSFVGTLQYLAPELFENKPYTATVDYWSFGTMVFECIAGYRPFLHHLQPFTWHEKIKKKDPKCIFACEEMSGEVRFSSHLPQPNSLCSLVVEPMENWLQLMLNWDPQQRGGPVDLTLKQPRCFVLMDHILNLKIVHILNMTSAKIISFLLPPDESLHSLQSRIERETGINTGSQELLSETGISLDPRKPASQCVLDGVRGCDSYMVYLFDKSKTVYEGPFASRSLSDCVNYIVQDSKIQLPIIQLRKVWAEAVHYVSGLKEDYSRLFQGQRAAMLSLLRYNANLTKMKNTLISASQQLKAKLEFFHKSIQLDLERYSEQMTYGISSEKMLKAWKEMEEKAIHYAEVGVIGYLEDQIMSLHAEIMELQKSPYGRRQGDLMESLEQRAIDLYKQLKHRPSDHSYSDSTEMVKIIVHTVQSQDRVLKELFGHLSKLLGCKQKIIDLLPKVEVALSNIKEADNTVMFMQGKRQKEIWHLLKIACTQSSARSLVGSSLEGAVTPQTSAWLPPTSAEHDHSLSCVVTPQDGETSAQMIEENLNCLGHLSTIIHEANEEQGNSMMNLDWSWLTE

[4] = molecular target: Tyrosine-protein kinase JAK2 (Homo sapiens) (UniProt O60674); assay: Inhibition of JAK2 JH1 domain (unknown origin) assessed as remaining activity at 1 uM by Kinome scan method relative to control
[5] = molecular target: Serine/threonine-protein kinase LATS2 (Homo sapiens) (UniProt Q9NRM7); assay: Inhibition of LATS2 (unknown origin) assessed as remaining activity at 1 uM by Kinome scan method relative to control
[6] = molecular target: Mitogen-activated protein kinase kinase kinase kinase 3 (Homo sapiens) (UniProt Q8IVH8); assay: Inhibition of MAP4K3 (unknown origin) assessed as remaining activity at 1 uM by Kinome scan method relative to control
[7] = molecular target: T3, Myosin light chain kinase (Homo sapiens) (UniProt Q32MK0); assay: Inhibition of MLCK (unknown origin) assessed as remaining activity at 1 uM by Kinome scan method relative to control
T3 sequence (whole entry): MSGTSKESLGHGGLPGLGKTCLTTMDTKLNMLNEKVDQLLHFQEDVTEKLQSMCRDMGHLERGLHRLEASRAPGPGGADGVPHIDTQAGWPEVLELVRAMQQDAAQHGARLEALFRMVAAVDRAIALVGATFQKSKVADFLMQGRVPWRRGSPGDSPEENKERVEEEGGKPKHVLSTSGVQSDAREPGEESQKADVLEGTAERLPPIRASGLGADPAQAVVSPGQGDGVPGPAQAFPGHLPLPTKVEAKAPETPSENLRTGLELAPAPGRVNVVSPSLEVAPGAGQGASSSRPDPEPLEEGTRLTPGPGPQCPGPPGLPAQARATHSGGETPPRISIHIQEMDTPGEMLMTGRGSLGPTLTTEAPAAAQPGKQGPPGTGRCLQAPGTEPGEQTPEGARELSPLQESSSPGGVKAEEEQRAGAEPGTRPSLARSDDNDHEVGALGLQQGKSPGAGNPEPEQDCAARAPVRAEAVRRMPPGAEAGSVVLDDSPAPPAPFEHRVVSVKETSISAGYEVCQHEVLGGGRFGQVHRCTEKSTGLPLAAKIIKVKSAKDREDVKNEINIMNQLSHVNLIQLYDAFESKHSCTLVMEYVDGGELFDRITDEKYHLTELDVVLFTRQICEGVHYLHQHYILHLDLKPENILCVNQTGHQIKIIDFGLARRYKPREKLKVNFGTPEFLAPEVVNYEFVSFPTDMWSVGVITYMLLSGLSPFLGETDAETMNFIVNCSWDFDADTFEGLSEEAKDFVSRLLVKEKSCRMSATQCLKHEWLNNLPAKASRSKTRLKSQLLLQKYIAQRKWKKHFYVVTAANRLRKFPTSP

[8] = molecular target: Mitogen-activated protein kinase kinase kinase 10 (Homo sapiens) (UniProt Q02779); assay: Inhibition of MLK2 (unknown origin) assessed as remaining activity at 1 uM by Kinome scan method relative to control
[9] = molecular target: cAMP-dependent protein kinase catalytic subunit alpha (Homo sapiens) (UniProt P17612); assay: Inhibition of PKAC-alpha (unknown origin) assessed as remaining activity at 1 uM by Kinome scan method relative to control
[10] = molecular target: RAF proto-oncogene serine/threonine-protein kinase (Homo sapiens) (UniProt P04049); assay: Inhibition of RAF1 (unknown origin) assessed as remaining activity at 1 uM by Kinome scan method relative to control
[11] = molecular target: Myosin light chain kinase family member 4 (Homo sapiens) (UniProt Q86YV6); assay: Inhibition of SgK085 (unknown origin) assessed as remaining activity at 1 uM by Kinome scan method relative to control
[12] = molecular target: Serine/threonine-protein kinase tousled-like 2 (Homo sapiens) (UniProt Q86UE8); assay: Inhibition of TLK2 (unknown origin) assessed as remaining activity at 1 uM by Kinome scan method relative to control
[13] = molecular target: Mitogen-activated protein kinase kinase kinase 20 (Homo sapiens) (UniProt Q9NYL2); assay: Inhibition of ZAK (unknown origin) assessed as remaining activity at 1 uM by Kinome scan method relative to control
Sequence of Mitogen-activated protein kinase kinase kinase 20 (Homo sapiens) (Q9NYL2 2-800 limits assumed): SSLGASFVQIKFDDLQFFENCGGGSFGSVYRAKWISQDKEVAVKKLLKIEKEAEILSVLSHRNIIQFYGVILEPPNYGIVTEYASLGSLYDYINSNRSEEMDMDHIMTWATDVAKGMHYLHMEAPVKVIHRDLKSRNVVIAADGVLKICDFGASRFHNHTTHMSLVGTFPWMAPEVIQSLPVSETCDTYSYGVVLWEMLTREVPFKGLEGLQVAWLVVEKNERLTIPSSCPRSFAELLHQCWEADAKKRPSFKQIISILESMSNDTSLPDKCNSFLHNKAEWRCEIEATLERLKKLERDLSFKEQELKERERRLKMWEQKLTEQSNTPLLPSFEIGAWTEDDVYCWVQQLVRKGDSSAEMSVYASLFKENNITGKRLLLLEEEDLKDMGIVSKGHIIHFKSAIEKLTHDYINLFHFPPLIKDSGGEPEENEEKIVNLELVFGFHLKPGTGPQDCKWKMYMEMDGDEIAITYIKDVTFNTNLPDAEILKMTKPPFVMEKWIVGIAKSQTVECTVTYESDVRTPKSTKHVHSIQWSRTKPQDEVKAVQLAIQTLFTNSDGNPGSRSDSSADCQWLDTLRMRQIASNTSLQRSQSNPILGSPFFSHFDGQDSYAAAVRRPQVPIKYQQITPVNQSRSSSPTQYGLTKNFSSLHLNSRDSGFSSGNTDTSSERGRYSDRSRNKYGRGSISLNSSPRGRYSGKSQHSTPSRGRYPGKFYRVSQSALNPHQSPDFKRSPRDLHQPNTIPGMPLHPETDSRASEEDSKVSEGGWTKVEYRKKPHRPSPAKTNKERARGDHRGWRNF

Sequence of Serine/threonine-protein kinase LATS2 (Homo sapiens) (Q9NRM7 whole entry): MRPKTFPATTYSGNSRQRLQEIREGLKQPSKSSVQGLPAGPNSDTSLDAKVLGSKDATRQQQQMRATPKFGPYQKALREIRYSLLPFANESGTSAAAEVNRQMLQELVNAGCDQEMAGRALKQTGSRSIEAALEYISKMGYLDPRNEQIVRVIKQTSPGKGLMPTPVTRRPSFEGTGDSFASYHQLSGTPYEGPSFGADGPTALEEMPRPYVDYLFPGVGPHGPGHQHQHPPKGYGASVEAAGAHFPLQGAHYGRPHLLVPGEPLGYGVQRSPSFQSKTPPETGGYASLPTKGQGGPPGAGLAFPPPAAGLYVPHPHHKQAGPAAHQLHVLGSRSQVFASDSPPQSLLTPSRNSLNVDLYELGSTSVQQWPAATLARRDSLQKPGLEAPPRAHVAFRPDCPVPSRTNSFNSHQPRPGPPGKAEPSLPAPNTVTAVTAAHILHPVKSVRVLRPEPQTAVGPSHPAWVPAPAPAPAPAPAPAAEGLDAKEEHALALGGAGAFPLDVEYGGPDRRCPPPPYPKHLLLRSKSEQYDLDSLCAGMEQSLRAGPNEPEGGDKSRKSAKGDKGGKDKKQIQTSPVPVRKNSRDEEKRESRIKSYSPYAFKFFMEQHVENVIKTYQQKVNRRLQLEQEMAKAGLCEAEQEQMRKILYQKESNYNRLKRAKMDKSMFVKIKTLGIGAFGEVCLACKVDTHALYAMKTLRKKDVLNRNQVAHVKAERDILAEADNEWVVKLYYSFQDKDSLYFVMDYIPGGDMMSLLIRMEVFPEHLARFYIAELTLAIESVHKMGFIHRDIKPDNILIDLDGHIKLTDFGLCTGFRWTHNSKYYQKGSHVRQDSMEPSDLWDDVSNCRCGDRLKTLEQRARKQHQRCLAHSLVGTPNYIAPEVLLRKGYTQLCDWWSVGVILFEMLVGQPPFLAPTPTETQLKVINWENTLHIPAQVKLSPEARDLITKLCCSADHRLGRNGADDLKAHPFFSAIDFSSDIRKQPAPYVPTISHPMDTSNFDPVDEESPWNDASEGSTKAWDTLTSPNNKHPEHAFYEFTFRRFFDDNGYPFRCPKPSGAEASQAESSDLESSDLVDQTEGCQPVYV
Sequence of Mitogen-activated protein kinase kinase kinase 10 (Homo sapiens) (Q02779 whole entry, looked up): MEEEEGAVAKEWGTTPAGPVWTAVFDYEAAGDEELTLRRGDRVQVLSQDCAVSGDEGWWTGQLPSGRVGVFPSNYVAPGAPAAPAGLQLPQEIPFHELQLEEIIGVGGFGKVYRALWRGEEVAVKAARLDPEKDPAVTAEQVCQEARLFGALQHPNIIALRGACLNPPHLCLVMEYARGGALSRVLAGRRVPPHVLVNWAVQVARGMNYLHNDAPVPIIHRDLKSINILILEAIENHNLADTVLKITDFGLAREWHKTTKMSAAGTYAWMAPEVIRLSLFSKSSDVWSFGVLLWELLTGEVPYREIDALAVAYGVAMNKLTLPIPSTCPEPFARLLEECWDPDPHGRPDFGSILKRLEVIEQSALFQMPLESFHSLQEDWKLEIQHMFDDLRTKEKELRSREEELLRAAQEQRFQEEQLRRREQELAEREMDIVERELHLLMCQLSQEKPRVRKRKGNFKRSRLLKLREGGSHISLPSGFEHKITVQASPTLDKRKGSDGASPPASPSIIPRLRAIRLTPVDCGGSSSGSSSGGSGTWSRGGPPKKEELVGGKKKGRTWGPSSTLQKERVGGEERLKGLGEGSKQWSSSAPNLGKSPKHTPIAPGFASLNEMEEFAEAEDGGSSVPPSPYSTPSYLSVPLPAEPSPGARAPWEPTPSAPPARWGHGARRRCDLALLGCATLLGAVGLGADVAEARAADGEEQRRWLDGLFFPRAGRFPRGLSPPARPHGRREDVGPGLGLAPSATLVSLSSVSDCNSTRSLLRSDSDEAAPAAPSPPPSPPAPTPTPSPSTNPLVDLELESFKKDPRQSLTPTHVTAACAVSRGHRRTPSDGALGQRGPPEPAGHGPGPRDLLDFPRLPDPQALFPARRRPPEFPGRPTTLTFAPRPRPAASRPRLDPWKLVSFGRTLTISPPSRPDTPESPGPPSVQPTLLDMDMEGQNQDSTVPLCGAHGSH
Sequence of Serine/threonine-protein kinase BRSK2 (Homo sapiens) (Q8IWQ3 whole entry): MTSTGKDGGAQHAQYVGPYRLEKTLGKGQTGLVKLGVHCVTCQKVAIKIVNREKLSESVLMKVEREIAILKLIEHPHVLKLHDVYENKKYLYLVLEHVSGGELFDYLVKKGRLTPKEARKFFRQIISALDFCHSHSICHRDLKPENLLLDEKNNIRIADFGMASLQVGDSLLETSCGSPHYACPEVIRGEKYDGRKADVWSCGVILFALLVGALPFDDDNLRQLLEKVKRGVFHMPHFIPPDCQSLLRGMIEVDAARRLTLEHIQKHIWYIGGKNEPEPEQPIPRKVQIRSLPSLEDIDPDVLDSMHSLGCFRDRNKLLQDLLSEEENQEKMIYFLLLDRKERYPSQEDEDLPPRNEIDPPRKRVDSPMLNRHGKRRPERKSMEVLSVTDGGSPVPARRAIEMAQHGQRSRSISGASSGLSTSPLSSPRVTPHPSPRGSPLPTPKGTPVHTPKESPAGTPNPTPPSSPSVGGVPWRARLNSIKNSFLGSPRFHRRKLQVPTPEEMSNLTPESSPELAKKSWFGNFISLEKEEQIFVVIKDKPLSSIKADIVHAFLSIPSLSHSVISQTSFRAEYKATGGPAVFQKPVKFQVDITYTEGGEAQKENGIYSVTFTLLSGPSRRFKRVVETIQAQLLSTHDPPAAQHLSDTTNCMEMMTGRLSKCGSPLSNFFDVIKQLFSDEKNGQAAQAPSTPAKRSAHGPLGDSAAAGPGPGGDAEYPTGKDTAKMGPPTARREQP
Sequence of Tyrosine-protein kinase JAK2 (Homo sapiens) (O60674 whole entry, the tested form may be a part): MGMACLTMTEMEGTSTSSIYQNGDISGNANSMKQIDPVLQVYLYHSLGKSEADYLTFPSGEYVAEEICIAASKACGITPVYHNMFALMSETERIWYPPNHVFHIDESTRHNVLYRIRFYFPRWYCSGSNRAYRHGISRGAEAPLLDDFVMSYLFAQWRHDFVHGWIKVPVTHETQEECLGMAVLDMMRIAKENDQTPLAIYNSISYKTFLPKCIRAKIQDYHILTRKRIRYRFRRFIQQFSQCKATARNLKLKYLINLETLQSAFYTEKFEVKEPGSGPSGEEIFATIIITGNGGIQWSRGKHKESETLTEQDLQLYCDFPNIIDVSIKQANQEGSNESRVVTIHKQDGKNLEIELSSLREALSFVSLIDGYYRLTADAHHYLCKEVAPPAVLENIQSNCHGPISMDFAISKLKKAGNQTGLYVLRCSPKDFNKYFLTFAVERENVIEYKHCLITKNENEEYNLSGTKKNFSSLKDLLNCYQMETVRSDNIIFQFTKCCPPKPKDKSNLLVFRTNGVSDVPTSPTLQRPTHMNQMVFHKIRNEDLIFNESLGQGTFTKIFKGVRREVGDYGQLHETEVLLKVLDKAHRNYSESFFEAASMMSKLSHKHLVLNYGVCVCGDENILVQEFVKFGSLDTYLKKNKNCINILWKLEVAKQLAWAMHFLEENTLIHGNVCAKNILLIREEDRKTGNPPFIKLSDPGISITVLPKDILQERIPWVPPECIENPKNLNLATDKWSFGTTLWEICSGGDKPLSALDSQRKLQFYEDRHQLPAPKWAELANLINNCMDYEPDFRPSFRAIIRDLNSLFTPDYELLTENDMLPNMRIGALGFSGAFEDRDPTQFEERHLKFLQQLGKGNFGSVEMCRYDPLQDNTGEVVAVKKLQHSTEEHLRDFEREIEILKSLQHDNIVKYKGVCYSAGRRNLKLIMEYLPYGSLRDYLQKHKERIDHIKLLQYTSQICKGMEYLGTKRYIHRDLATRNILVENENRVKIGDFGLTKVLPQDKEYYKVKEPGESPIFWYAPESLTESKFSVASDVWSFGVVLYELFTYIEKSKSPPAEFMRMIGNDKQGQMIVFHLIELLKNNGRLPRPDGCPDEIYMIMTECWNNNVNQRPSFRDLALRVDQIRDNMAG
Sequence of Myosin light chain kinase family member 4 (Homo sapiens) (Q86YV6 whole entry): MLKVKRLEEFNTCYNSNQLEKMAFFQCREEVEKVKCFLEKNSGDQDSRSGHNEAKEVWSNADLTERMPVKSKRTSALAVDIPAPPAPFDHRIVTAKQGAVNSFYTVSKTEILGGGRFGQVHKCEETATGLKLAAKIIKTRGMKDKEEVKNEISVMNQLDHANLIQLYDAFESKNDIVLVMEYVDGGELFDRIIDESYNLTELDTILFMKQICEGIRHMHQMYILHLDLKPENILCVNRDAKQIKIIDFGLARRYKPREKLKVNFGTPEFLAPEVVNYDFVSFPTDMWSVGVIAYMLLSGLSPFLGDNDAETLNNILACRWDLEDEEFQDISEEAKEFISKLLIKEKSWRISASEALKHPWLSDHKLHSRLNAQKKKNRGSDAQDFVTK

Compound | Activity [1] [%] | Activity [2] [%] | Activity [3] [%] | Activity [4] [%] | Activity [5] [%] | Activity [6] [%] | Activity [7] [%] | Activity [8] [%] | Activity [9] [%] | Activity [10] [%] | Activity [11] [%] | Activity [12] [%] | Activity [13] [%]
Nc1ccccc1Nc1ccc2c(c1)CCc1ccccc1C2=O | 91 | 92 | 98 | 80 | 77 | 75 | 85 | 92 | 83 | 93 | 97 | 85 | 85
O=C1c2ccc(Nc3ccc(F)cc3F)cc2CCc2ccc(OC[C@H](O)CO)cc21 [Skepinone-L] | 94 | 100 | 100 | 100 | 94 | 88 | 100 | 85 | 95 | 100 | 100 | 82 | 98
